The source of these data is PMC11694514, “Structural and kinetic characterization of DUSP5 with a Di-phosphorylated tripeptide substrate from the ERK activation loop” (Frontiers in chemical biology, 2024).

Like-named read-outs stand apart in the source and are kept apart here. Where a SMILES comes first, the peptide text is derived from it. [ ]: non-standard residue; d: D form. pY = N[C@@H](Cc1ccc(OP(=O)(O)O)cc1)C(=O)O; pT = C[C@@H](OP(=O)(O)O)[C@H](N)C(=O)O

Test [1] addresses Bovine Low Molecular Weight Phosphotyrosyl Phosphatase. Further details: method as in Zhang et al. (1997). The conditions noted are these: Bovine heart, substrate PNPP, Sodium acetate, ref Zhang et al. (1997), cited from earlier work.
Test [2] addresses Acid phosphatases (Bovine liver). Further details: method as in Lawrence and Van Etten (1981). The conditions noted are these: pH 5.5, substrate PNPP, Sodium acetate, ref Lawrence and Van Etten (1981); cited from earlier work.
Another test addresses PTP1B. The conditions noted are these: cited from earlier work.
Test [3] addresses Human prostatic acid phosphatase. The conditions noted are these: pH 5.0; substrate PNPP; Sodium acetate; ref Zhou et al. (1993); cited from earlier work.
The target in test [4] is Phosphotyrosyl protein phosphatases. The conditions noted are these: pH 5.0; substrate PNPP; Sodium acetate; ref Zhou et al. (1993); cited from earlier work.
The target in test [5] is SHP-1 (domain containing protein tyrosine phosphatase-1). The conditions noted are these: pH 7.5; substrate PNPP; Tris; ref Heo et al. (2002); cited from earlier work.
A further test has as its target PTPase. The note with it: substrate PNPP, ref Deng et al. (2002), cited from earlier work.
Test [6] concerns the target Bacteriophage λ protein phosphatase. The conditions noted are these: pH 7.8; substrate PNPP; Tris; ref Reiter et al. (2001); cited from earlier work.
For test [7], the target named is T1, DUSP5pdWT (Homo sapiens, UniProt Q16690).
T1 sequence (Q16690 178-319 limits assumed): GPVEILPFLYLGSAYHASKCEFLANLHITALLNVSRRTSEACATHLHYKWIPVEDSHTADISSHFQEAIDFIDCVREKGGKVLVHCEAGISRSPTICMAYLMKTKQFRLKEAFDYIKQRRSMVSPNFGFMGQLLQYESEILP
The test can be described thus: Steady state inhibition of pNPP hydrolysis by vanadate and phosphate. The note with it: for inhibition pattern / Ki (Kis): pNPP substrate; for Ki (Kis): Tris pH 7.5, 0.045 mM DTT, global kinetics analysis.
Description: All assays were carried out using pNPP as a substrate in the presence of DTT using a microplate reader and a total volume of 100 μL. Each assay contained an enzyme concentration of approximately 0.072 mg/mL (appropriately 3.13 μM DUSP5pdWT) which was left in a stock solution at about 1 h at 4°C before use. Each assay consisted of a reaction mixture in 100 mM tris-hydrochloride buffer containing 100 mM NaCl and 5.0 mM magnesium chloride (MgCl2) at pH 7.5. […] The kinetic parameters were measured in the presence of 0.045 mM DTT in the assay solution and the assay was started with the addition of pNPP.
For phosphate inhibition studies, the phosphate inhibitor concentrations used were 0.5; 1; 2; 5; 10 mM. […] The kinetic runs were repeated three times and the data were initial processed using excel and the global kinetics analysis was performed using GraphPad Prism 10.1.2. The errors provided in the analysis were calculated by the program.

For test [8], the target named is T1, DUSP5pdWT. Put plainly: Steady state inhibition of pNPP hydrolysis by tripeptides. In kind it is biochemical. The arrangement: The Dusp5 phosphatase domain gene, both wild type (WT; DUSP5pdWT; used for kinetic studies); inferred from the Nickel NTA purification), with additional N-terminal amino acids (N); made in house. The note with it: for Ki: peptide as inhibitor of pNPP hydrolysis.

The next test has as its target T2, DUSPpdWT (Homo sapiens, UniProt Q16690).
T2 construct: The Dusp5 phosphatase domain gene, both wild type (WT; DUSP5pdWT; used for kinetic studies); inferred from the Nickel NTA purification), with additional N-terminal amino acids (N); made in house
T2 sequence (Q16690 178-319 limits assumed): T1 sequence (Q16690 178-319 limits assumed)
The test can be described thus: 31P NMR monitoring of tripeptide hydrolysis. The test is classed as biochemical. The method, then: Hydrolysis of the pThr-Glu-pTyr peptide was monitored using ^31P 1D NMR and a Varian 500 MHz spectrometer equipped with a broad band probe. 1 mM of peptide was incubated with 100 μM of DUSPpdWT protein for 3 min, and spectra were collected at 25°C. See Figure 2 and, for a time course, Supplementary Figure S3.

Setting [9] is: Ki, global competitive model, Lineweaver-Burk fit (equation S2).
The mark [10] stands for this setting: Ki, global competitive model, Michaelis-Menten fit (Eq. 2).

As for sodium vanadate, the Ki in test [1] (pH 5.0) is 5.4 µM; in [1] (pH 7.5), 1 µM; in test [2], 2000 µM; at PTP1B (pH 5.5, substrate PNPP, Tris, ref Heo et al. (2002)), 410 µM; on PTP1B (pH 7.3, substrate FDP, HEPES, ref Huyer et al. (1997)) it was 0.38 µM; at PTP1B (pH 7.5, substrate PNPP, Tris, ref Heo et al. (2002)) it was 5.6 µM. For the same compound, the Ki was 36 µM in test [3]; 24 µM in [4]; 9.3 µM in test [5]; 1.1 µM at PTPase (pH 5.5, Acetate); 1.2 µM on PTPase (pH 7.5, Tris); 0.7 µM in test [6]. On DUSP5pdWT [7], the inhibition pattern result is recorded as “competitive inhibitors”.

Regarding `O=P(O)(O)O` [phosphate, sodium phosphate], the inhibition constant (Ki) in test [1] (pH 5.0) was 2200 ± 0.4 µM; in [1] (pH 7.5), 6200 µM; in test [2] it was 3000 µM; on PTP1B (pH 7.0, substrate PNPP, 3,3-Dimethylglutarate, ref Zhang, Y.L. and Zhang, Z.Y. (1998)), 17000 µM. The results for the inhibition pattern result at DUSP5pdWT [7] and on DUSP5pdWT [7] (listed as Phosphate) were “competitive inhibitors” and “competitive inhibition pattern”, respectively. Moreover, the “Ki (Kis)” value on DUSP5pdWT [7] (listed as Phosphate) worked out at 17300 µM; at DUSP5pdWT [7] (listed as sodium phosphate), 17320 µM.

With `O=[N+]([O-])c1ccc(OP(=O)(O)O)cc1` [pNPP, p-nitrophenol phosphate], the Km on DUSP5pdWT [7] (pH 7.5) came to 8.02 mM.

Regarding `CC(=O)N[C@H](C(=O)N[C@@H](CCC(=O)O)C(=O)N[C@@H](Cc1ccc(O)cc1)C(N)=O)[C@@H](C)OP(=O)(O)O` [pT-E-Y] (Ac-[pT]-Glu-Tyr-NH2), the Ki is 21900 µM on DUSP5pdWT [8] (global competitive model, Lineweaver-Burk fit (equation S2), read-out: Ki) and 15800 µM on DUSP5pdWT [8] (global competitive model, Michaelis-Menten fit (Eq. 2), read-out: Ki).

For the compound `CC(=O)N[C@H](C(=O)N[C@@H](CCC(=O)O)C(=O)N[C@@H](Cc1ccc(OP(=O)(O)O)cc1)C(N)=O)[C@@H](C)O` [T-E-pY] (Ac-Thr-Glu-[pY]-NH2), the figures for the inhibition constant Ki at DUSP5pdWT [8] (setting [9]) and on DUSP5pdWT [8] (setting [10]) were 4800 µM and 4930 µM, respectively.

For the compound `CC(=O)N[C@H](C(=O)N[C@@H](CCC(=O)O)C(=O)N[C@@H](Cc1ccc(OP(=O)(O)O)cc1)C(N)=O)[C@@H](C)OP(=O)(O)O` [pT-E-pY, Ac-pThr-Glu-pTyr-NH2] (Ac-[pT]-Glu-[pY]-NH2), the “conversion to orthophosphate (both phosphates cleaved)” value at DUSPpdWT (1 mM peptide, 100 μM DUSP5pdWT, 3 min, 25°C) amounted to 100%. At DUSPpdWT (10-fold lower enzyme concentration, even after prolonged incubation), the “pT and pY peptides remaining (each)” value was “about 25%”. Moreover, the conversion result on DUSPpdWT (10-fold lower enzyme concentration, first timepoint after 3 min incubation) was “about 50%”. The Ki at DUSP5pdWT [8] (setting [9]) came out at 1220 µM; at DUSP5pdWT [8] (setting [10]) it was 1670 µM. Besides, the kcat on DUSP5pdWT [8] (pNPP substrate, peptide as inhibitor, global competitive model, Michaelis-Menten fit (Eq. 2)) is on record as 2.03 ± 0.07 × 10^−2 s^−1. Besides, the “fold more potent binder” value on DUSP5pdWT [8] (relative to the pY monophosphorylated peptide) is on record as “roughly 3 x”.
